Laboratory results published in publication PMC3368601 (Chemistry & biology, 2011).

Molecular target: AAK1 (adaptor-associated kinase 1) (Homo sapiens, UniProt Q2M2I8)
Test: ADP-Glo kinase assay with recombinant AAK1 and AP2M1 peptide
Type: biochemical

AAK1 (adaptor-associated kinase 1), sequence (Q2M2I8 46-315 limits assumed): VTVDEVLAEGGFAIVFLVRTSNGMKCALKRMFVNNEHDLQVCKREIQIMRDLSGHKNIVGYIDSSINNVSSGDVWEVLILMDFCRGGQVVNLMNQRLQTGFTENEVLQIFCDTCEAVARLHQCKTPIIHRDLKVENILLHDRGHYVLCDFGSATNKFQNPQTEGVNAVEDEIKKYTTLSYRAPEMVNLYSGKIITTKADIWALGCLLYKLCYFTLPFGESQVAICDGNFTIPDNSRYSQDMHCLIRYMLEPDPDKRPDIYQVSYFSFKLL

SMILES: COC(=O)C1(O)C[C@H]2O[C@]1(C)n1c3ccccc3c3c4c(c5c6ccccc6n2c5c31)C(=O)NC4 (stereo partly shown) [compound 1, K252a]
- IC50: < 10 nM
